The target of one data set is T1, Human STING (Homo sapiens, UniProt Q86WV6, G230A/H232R/R293Q/R71H).
T1 construct: using human THP1-Blue™ ISG SEAP based reporter cell line (Invivogen); host or cells: THP1-Blue ISG cells (human monocytic THP-1 derived SEAP reporter line)
Put plainly: Stimulation of human STING signaling in THP1 cell line (THP1-Blue ISG SEAP reporter). It counts as cell-based. Particulars: THP1-Blue ISG cells, SEAP activity, 18-20 hours. The procedure: Biological Assay—Stimulation of Human STING Signaling in THP1 Cell Line
Compounds were tested for their STING activation potential using human THP1-Blue™ ISG SEAP based reporter cell line (Invivogen). Briefly, THP1-Blue ISG cells (100,000 cells/well) in 96 well plate were treated with varying concentrations of test and reference compounds and incubated at 37° C. with 5% CO2 for 18-20 hours. The control untreated cells were also set up. Post incubation, the cell supernatant was tested for SEAP (Secreted Embryonic Alkaline Phosphatase) activity using the QuantiBlue™ substrate reagent (Invivogen). The formation of blue coloured product was quantified by measuring absorbance at wavelength of 620 nm using PheraStar/Tecan reader. The average of duplicate readouts for each data point was plotted in GraphPad prism 6 against the concentration of test or reference compound to calculate EC50 value. The fold of SEAP induction or increase in luminescence at different data points was estimated against the un-stimulated cell control set.

The test system of another data set is CD3^+CD8^+ T cells. Nature of the data set: Estimation of immune cell infiltration in tumors (flow cytometry). The data set is classed as in vivo, Balb/c mice. The conditions noted are these: for % CD3^+CD8^+ T cells: infiltration in tumor, 96 h post treatment, 0.375 mg/kg single i.v.; for % CD3^+CD8^+ T cells infiltrating the tumor as compared to the vehicle-treated group: single i.v. dose of 0.375 mg/kg, 96 h post treatment initiation. The protocol: Estimation of immune cell infiltration in tumors: CT-26 tumor-bearing Balb/c mice were treated intravenously with 0.375 mg/kg of test compounds and blood and tumors were processed for analysis of CD8^+, CD3^+ and CD45^+ T cells at 24 h and 96 h after start of treatment. Blood samples were subjected to RBC lysis and the cells were recovered by centrifugation. Following wash with PBS, the cells were blocked using TruStain FcX™ blocking antibody and stained with fluorophore-tagged anti-CD45, anti-CD3 and anti-CD8 antibodies. Tumor samples were minced and subjected to tissue digestion using freshly prepared collagenase-IV solution (1 mg/ml) containing DNase (0.05 mg/ml) for 1-1.5 h at 37° C. and 150-200 rpm. Single cell suspension was prepared by filtering it through a 100 μm mesh and checked for cell viability. Cells were stained with various antibodies as mentioned above. The distinct T cell subsets were analysed on FACS Canto II (BD) and percentage of each population was calculated after initial gating of CD45^+ lymphocyte population.

The test system of the next data set is CT26 Allograft. Nature of the data set: Tumor volume in CT26 allograft BALB/c mice model, intravenous administration. The data set is classed as in vivo. Particulars: for effect on tumor volume / subjects exhibiting complete tumor regression: i.v., indicated dose at days 1, 4, and 8. The procedure:
Effect of Compounds on Tumor Volume in CT26 Allograft BALB/c Mice Model by Intravenous (i.v.) Administration
Healthy, female BALB/c mice in the age group of 5-8 weeks issued from Research Animal Facility (RAF). These mice were housed in individually ventilated cages (IVC) in the experimental animal room and were acclimatized not less than 5 days prior to cell inoculation. All the experimental activities were carried out inside the biosafety cabinet to ensure sterility. Under aseptic conditions, Allograft tumor model was generated by inoculating BALB/c mice with 0.1 million CT26 single cell suspension (colorectal cancer model), using 1 mL disposable syringe fitted with a 26G ½″ sterile needle. Each mouse was inoculated with 100 μL of CT26 cell suspension in phosphate buffered saline (PBS) media, subcutaneously in right flank region. Mice were randomized into different groups, post cell inoculation, with approximately equal mean and equal variation (S.E.M.) of tumor volumes in various treatment groups including vehicle control group.
Tumor size was measured with Vernier caliper when the tumor became palpable. Tumor volume (T. V.) was calculated by using the formula: Tumor volume (mm^3)=(L×W^2)/2 • Where, L—Length of tumor, W—Width of tumor
Mice were selected and randomized, on the basis of tumor volume, into required no. of groups with approximately equal mean and equal variation on day 1 of treatment, post-tumor cell inoculation. All study groups were treated via intravenous route on day 1, 4 and 8 dosing schedule, through lateral tail vein at a dose volume of 5 mL/kg.
Tumor sizes were measured with Vernier caliper twice weekly and body weights of mice were recorded daily.
Percent tumor growth inhibition (% TGI) was calculated using the formula: % TGI=[1−(Tf−Ti)/(Cf−Ci)]×100 Wherein Tf and Ti are the final and initial test tumor volumes, respectively, and Cf and Ci are the final and initial control mean tumor volumes, respectively.
Percent Tumor Regression (% TR) was calculated using the formula: % TR=[(Initial T.V.−Final T.V.)/(Initial T.V.)]×100 Wherein T.V.=Tumor Volume
Body weight change (%) was calculated by using the formula: Body weight change (%)[=(Final B.Wt.)−(Initial B.Wt.)/Initial B.Wt.]×100 Wherein B.Wt.=Body weight

Data set [1] can be described thus: Apparent solubility/extended kinetic solubility by UHPLC. The data set is classed as physicochemical. The conditions noted are these: aqueous buffer, thermodynamic from solid, phosphate buffer, 37° C. The procedure: Biological Assay—Determination of Apparent Solubility/Extended Kinetic Solubility by UHPLC
Test sample preparation: About 0.5 mg of the test sample was weighed and transferred in duplicate in 1 mL glass inserts of 96 well plates. 5 μL of DMSO and 1 ml of phosphate buffer were added. Allowed for equilibrium in an orbital shaker at 37° C. for 24 hrs. Later, allowed it cool to room temperature and centrifuged the 96 well plate (at 240×10 RPM for 20 min) and supernatant material was taken into collection plate, covered it with the heat resistant aluminum sheet or supernatant material was directly taken into HPLC sample vial.
Injected diluent as blank and linearity solutions in duplicate. Recorded the chromatograms and plotted the calibration curve, concentration (X-axis) versus Area (y-axis). The correlation coefficient for calibration curve should be not less than 0.95. If above criteria passes, then injected the test samples and recorded the chromatograms. In case saturated peaks are observed, then diluted the test sample with diluent as appropriate.
Calculated the slope and intercept of the calibration curve. From the standard curve, determined the solubility of the sample in μM (micromolar).

“Also recorded” adds a separate entry of the source. Where a name gives a salt, the structure may show the parent alone.

T1 sequence (Q86WV6 whole entry R71H/G230A/H232R/R293Q): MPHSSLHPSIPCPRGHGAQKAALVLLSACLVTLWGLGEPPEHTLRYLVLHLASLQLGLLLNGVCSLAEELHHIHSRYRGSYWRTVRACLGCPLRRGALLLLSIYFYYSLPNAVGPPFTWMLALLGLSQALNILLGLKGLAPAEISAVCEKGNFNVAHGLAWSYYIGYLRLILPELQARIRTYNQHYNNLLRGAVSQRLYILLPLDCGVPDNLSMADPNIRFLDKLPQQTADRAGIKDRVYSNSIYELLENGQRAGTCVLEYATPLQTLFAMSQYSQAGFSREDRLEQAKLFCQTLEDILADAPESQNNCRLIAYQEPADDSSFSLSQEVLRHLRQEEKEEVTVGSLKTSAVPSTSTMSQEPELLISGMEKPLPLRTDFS

The EC50 is the midpoint of the concentration-response curve. A lower EC50 goes with an effect from little substance. The solubility is the dissolved amount per volume that the medium holds. Molecule `CCn1nc(C)cc1C(=O)Nc1nc2cc(C(N)=O)cc3c2n1C/C=C/Cn1c(NC(=O)c2cc(C)nn2CC)nc2cc(C(=O)N[C@H]4CC[C@H](C(=O)O)CC4)cc(c21)OCCCO3` [Compound 2, (1R,4R)-4-((E)-12-carbamoyl-1,15-bis(1-ethyl-3-methyl-1H-pyrazole-5-carboxamido)-8,9,16,19-tetrahydro-7H-6,10-dioxa-2,14,15a,19a-tetraazacyclopentadeca[3,2,1-cd:8,9,10-c′d′]diindene-4-carboxamido)cyclohexane-1-carboxylic acid sodium salt] returned an EC50 at Human STING of 1 to 10 nM. Also, the “% CD3^+CD8^+ T cells” value with CD3^+CD8^+ T cells is listed as 11.2 ± 0.2%. The “% CD3^+CD8^+ T cells infiltrating the tumor as compared to the vehicle-treated group” value in the data set with CD3^+CD8^+ T cells (sodium salt, 0.375 mg/kg) is on record as “higher percentage of T cell infiltration over that of vehicle control; also recorded: increase”. In addition, the “effect on body weight” value in the data set with CT26 Allograft (3 mpk (mg/kg)) is below 10%. Besides, in the data set with CT26 Allograft, the “effect on tumor volume” value was “reduces tumor volume” and the “subjects exhibiting complete tumor regression” value is 7 out of 9. In addition, the “effect on tumor volume at high dose” value with CT26 Allograft (two different doses, days 1, 4, and 8, n=10 (FIG. 6)) is “reduces tumor volume”. Further, the solubility at 24 h in data set [1] stood at 3.57 mM.
`CCn1nc(C)cc1C(=O)Nc1nc2cc(C(N)=O)cc3c2n1C/C=C/Cn1c(NC(=O)c2cc(C)nn2CC)nc2cc(C(=O)N[C@H]4CC[C@H](c5nnn[nH]5)CC4)cc(c21)OCCCO3` [Compound 6, (E)-N-((1R,4R)-4-(1H-tetrazol-5-yl)cyclohexyl)-1,15-bis(1-ethyl-3-methyl-1H-pyrazole-5-carboxamido)-8,9,16,19-tetrahydro-7H-6,10-dioxa-2,14,15a,19a-tetraazacyclopentadeca[3,2,1-cd:8,9,10-c′d′]diindene-4,12-dicarboxamide sodium salt] yielded an EC50 at Human STING of 1 to 10 nM. Besides, in the data set on CD3^+CD8^+ T cells, the “% CD3^+CD8^+ T cells” value was 13.9 ± 1.3% and the “% CD3^+CD8^+ T cells infiltrating the tumor as compared to the vehicle-treated group” value is on record as “increase”. In the data set on CT26 Allograft, the “effect on tumor volume” value is listed as “reduces tumor volume” and the “subjects exhibiting complete tumor regression” value is reported as 7 out of 9. For the same molecule, the solubility at 24 h in data set [1] is 3.5 mM.
On Human STING, `CCn1nc(C)cc1C(=O)Nc1nc2cc(C(N)=O)cc3c2n1C/C=C/Cn1c(NC(=O)c2cc(C)nn2CC)nc2cc(C(=O)NCCCn4cc(C(=O)O)cn4)cc(c21)OCCCO3` [Compound 8, (E)-1-(3-(12-carbamoyl-1,15-bis(1-ethyl-3-methyl-1H-pyrazole-5-carboxamido)-8,9,16,19-tetrahydro-7H-6,10-dioxa-2,14,15a,19a-tetraazacyclopentadeca[3,2,1-cd:8,9,10-c′d′]diindene-4-carboxamido)propyl)-1H-pyrazole-4-carboxylic acid sodium salt] showed an EC50 of 1 to 10 nM. For the same molecule, in the data set on CD3^+CD8^+ T cells, the “% CD3^+CD8^+ T cells” value was 15.5 ± 2.2% and the “% CD3^+CD8^+ T cells infiltrating the tumor as compared to the vehicle-treated group” value is “increase”. In the data set on CT26 Allograft, the “effect on tumor volume” value is “reduces tumor volume” and the “subjects exhibiting complete tumor regression” value is listed as 5 out of 9. The solubility at 24 h in data set [1] stood at 5.23 mM.
For the molecule `CCn1nc(C)cc1C(=O)Nc1nc2cc(C(N)=O)cc3c2n1C/C=C/Cn1c(NC(=O)c2cc(C)nn2CC)nc2cc(C(=O)N[C@H]4CC[C@H](c5nnn[nH]5)CC4)cc(c21)OC[C@@H](N1C2CCC1COC2)CO3` [Compound 12, (8S,E)-N4-((1R,4S)-4-(1H-tetrazol-5-yl)cyclohexyl)-8-(3-oxa-8-azabicyclo[3.2.1]octan-8-yl)-1,15-bis(1-ethyl-3-methyl-1H-pyrazole-5-carboxamido)-8,9,16,19-tetrahydro-7H-6,10-dioxa-2,14,15a,19a-tetraazacyclopentadeca[3,2,1-cd:8,9,10-c′d′]diindene-4,12-dicarboxamide sodium salt], the EC50 at Human STING lay within 1 to 10 nM. In addition, in the data set on CD3^+CD8^+ T cells, the “% CD3^+CD8^+ T cells” value is listed as 12.2 ± 0.5% and the “% CD3^+CD8^+ T cells infiltrating the tumor as compared to the vehicle-treated group” value is “increase”. In addition, in the data set on CT26 Allograft, the “effect on tumor volume” value was “reduces tumor volume” and the “subjects exhibiting complete tumor regression” value is 8 out of 10. For the same molecule, in data set [1], the solubility at 24 h came to 14.2 mM.
`CCn1nc(C)cc1C(=O)Nc1nc2cc(C(N)=O)cc3c2n1C/C=C/Cn1c(NC(=O)c2cc(C)nn2CC)nc2cc(C(=O)N[C@H]4CC[C@H](C(=O)O)CC4)cc(c21)OC[C@@H](N1C2CCC1COC2)CO3` [Compound 14, (1S,4R)-4-((8S,E)-8-(3-oxa-8-azabicyclo[3.2.1]octan-8-yl)-12-carbamoyl-1,15-bis(1-ethyl-3-methyl-1H-pyrazole-5-carboxamido)-8,9,16,19-tetrahydro-7H-6,10-dioxa-2,14,15a,19a-tetraazacyclopentadeca[3,2,1-cd:8,9,10-c′d′]diindene-4-carboxamido)cyclohexane-1-carboxylic acid sodium salt] yielded an EC50 on Human STING of 1 to 10 nM. In addition, in the data set on CT26 Allograft, the “effect on tumor volume” value was “reduces tumor volume” and the “subjects exhibiting complete tumor regression” value was 6 out of 9. Moreover, the solubility at 24 h in data set [1] was determined as 6.8 mM.

Source of the values: patent publication US12479858B2, “Macrocyclic compounds as sting agonists and methods and uses thereof” (Lupin Limited, priority 2019, dated 2025).
